Laboratory results: patent US5061695A, “Antitumor substance BE-12406” (Banyu Pharmaceutical Co., Ltd., priority 1989, dated 1991)

Assays:
[1] = test system: human colon cancer cell line DLD-1; assay: Cancer cell growth inhibition, DLD-1 (sulforhodamine B); assay type: cell-based; conditions: DLD-1, 72 hours, 37° C.
Experimental: (§1) For the assessment of the inhibitory activity of BE-12406A, B, X1 and X2 against human cancer cells, in vitro tests were carried out. As the test cells, human colon cancer cell lines DLD-1 and LS180 and human lung cancer cell line PC13 were used. The cell culture medium was 10% fetal calf serum-RPMI medium for DLD-1 and LS180, and 10% fetal calf serum-RPMI-1640 medium for PC13. First, each of BE-12406A, B, X1 and X2 was dissolved in dimethyl sulfoxide and the solution was serially diluted with PBS (phosphate-buffered saline) to prepare test solutions. The cancer cell growth inhibition assay was performed as follows. Thus, 100 μl of a cell culture medium containing 3×10^3 cancer cells was distributed into a 96-well microtiter plate and incubated under 5% CO2 at 37° C. for 24 hours. Then, 11 μl of the above test solutions were added and the incubation was further carried out under 5% CO2 at 37° C. for an additional 72 hours. The cells were then fixed with 50% trichloroacetic acid and stained with 0.4% sulforhodamine B. From the stained cells, the dye was extracted with 10 mM Tris solution and the absorbance at 540 nm was measured and compared with the control.

[2] = test system: human colon cancer cell line LS180; assay: Cancer cell growth inhibition, LS180 (sulforhodamine B); assay type: cell-based; conditions: LS180, 72 hours, 37° C.; for IC50: Homo sapiens
Experimental: as §1

[3] = test system: human lung cancer cell line PC13; assay: Cancer cell growth inhibition, PC13 (sulforhodamine B); assay type: cell-based; conditions: PC-13, PC13, 72 hours, 37° C.
Experimental: as §1

Solubility = assay type: physicochemical; conditions: for Solubility in organic solvents: dimethyl sulfoxide and other organic solvents
human cancer cells = assay: In vitro growth inhibition of human cancer cells DLD-1, LS180 and PC13 (overall statement); assay type: cell-based; conditions: DLD-1, LS180, PC13; 72 hours, 37° C.
Experimental: as §1

P388/S tumor cells = assay: In vitro growth inhibition of P388/S tumor cells (Coulter counter); assay type: cell-based; conditions: Mus musculus, 72 hours, 37° C., read-out: IC50, concentration causing 50% inhibition of P388/S cell growth
Experimental: (§2) In vitro activity tests were performed for evaluating the inhibitory activities of the antitumor substances BE-12406A and B against mouse tumor cells. In the in vitro antitumor assay using P388 tumor cells, the antitumor substance BE-12406A or B was first dissolved in dimethyl sulfoxide and the solution was serially diluted with a cell culture medium containing 20% of dimethyl sulfoxide (20% DMSO-RPMI-1640 medium). Then, 2 μl of each dilution was added to 200 μl of a cell culture medium (10% fetal calf serum-RPMI-1640 medium) containing 2.5×10^4 tumor cells and the mixture was incubated under 5% CO2 at 37° C. for 72 hours. The viable cells were then counted with a Coulter counter. The result was compared with the control data. […] The corresponding values for P388/V cells were 0.2 and 7 μM, respectively.
(§3) The P388/S tumor cell line is one of the common mouse leukemia cell lines, and the P388/V line is a strain of P388 leukemia cell which has acquired resistance to the anticancer agent vincristine.

P388/V cells = assay: In vitro growth inhibition of P388/V cells (vincristine-resistant); assay type: cell-based; conditions: Mus musculus, 72 hours, 37° C., read-out: IC50, 50% inhibition of P388/V cell growth
Experimental: as §2, §3

P388/A cells = assay: In vitro growth inhibition of P388/A cells (adriamycin-resistant); assay type: cell-based, mouse; conditions: for IC50: Mus musculus, P388/A (adriamycin-resistant), read-out: IC50, 50% inhibitory concentration, P388/A; for inhibition of P388/A cells (in words): adriamycin-resistant
Experimental: as §2

HeLa cells = assay: In vitro growth inhibition of HeLa cells (Crystal Violet); assay type: cell-based, human; conditions: 72 hours, 37° C.; for IC50: Homo sapiens, HeLa, read-out: IC50, 50% inhibitory concentration, HeLa
Experimental: (§4) Then, the in vitro inhibitory activity of BE-12406A and B was assayed using HeLa cells, which are human cancer cells, and L1210 cells which are mouse leukemia cells.
Thus, antitumor substance BE-12406A or B in a concentration series was added to 200 μl of a cell culture medium (10% fetal calf serum-MEM medium) containing 4×10^3 HeLa cells and the mixture was incubated under 5% CO2 at 37° C. for 72 hours. The surviving adherent cells were fixed with 10% formalin and stained with 0.01% Crystal Violet. Using a 1:1 (v/v) mixture of ethylene glycol and ethanol, the dye was extracted from the stained cells and the absorbance at 590 nm was measured and compared with the control.

L1210 cells = assay: In vitro growth inhibition of L1210 cells (Coulter counter); assay type: cell-based, mouse; conditions: 37° C.; for growth inhibition of L1210 cells (in words): 72 hours; for IC50: Mus musculus, L1210, 72 hours, read-out: IC50, 50% inhibitory concentration, L1210
Experimental: as §4
The growth inhibition assay using L1210 cells was performed as follows. Thus, antitumor substance BE-12406A or B in a concentration series was added to 200 μl of a cell culture medium (10% fetal calf serum-RPMI-1640) containing 4.5×10^3 L1210 cells and the mixture was incubated under 5% CO2 at 37° C. for 72 hours. The surviving suspended cells were counted with a Coulter counter and the result was compared with the control.

S-180 ascites tumor = assay: Antitumor effect on transplanted mouse S-180 ascites tumor (survival); assay type: in vivo; conditions: i.p.; for MST (mean survival time): days 1, 4, 7, 9 and 13, female ICR mice; for MST (% T/C), (treated MST/control MST) × 100: ≥ 125 = marked antitumor effect
Experimental: In this assay using mice, 10^6 (lethal dose) S-180 tumor cells pre mouse were intrapetitoneally administered and the 5% DMSO-PBS (phosphate Buffered Saline solution of BE-12406A in a dilution series (1:2, 1:4, 1:8, etc.) was intraperitoneally administered. The results are summarized in Table 3.
^1 Inoculum: 10^6 ascites tumor cells, intraperitoneal
^2 Host: Female ICR mice
^3 Treatment schedule: BE12406A was administered intraperitoneally on
^4 MST: Mean survival time (in days)
^5 % T/C: (treated MST/control MST) × 100
^6 Criteria: When % T/C ≥ 125, the test compound was considere
to produce a marked antitumor effect at the particular concentration.

[4] = Acute toxicity in mice, single intraperitoneal dosing; assay type: in vivo, mouse (ICR; conditions: 100 mg/kg, ICR female mice
P388 tumor cells = assay: In vitro growth inhibition of P388 tumor cells (overall statement); assay type: cell-based, mouse; conditions: 72 hours, 37° C.
Experimental: as §2

IC50 [1] | IC50 [2] | IC50 [3] | Solubility in organic solvents (Solubility; dimethylformamide) | Solubility in water (Solubility) | Structure (SMILES) | growth inhibition of human cancer cells (in words) (human cancer cells) | IC50 (P388/S tumor cells) | IC50 (P388/V cells) | IC50 (P388/A cells) | inhibition of P388/A cells (in words) (P388/A cells) | growth inhibition of HeLa cells (in words) (HeLa cells) | IC50 (HeLa cells) | growth inhibition of L1210 cells (in words) (L1210 cells) | IC50 (L1210 cells) | inhibition of proliferation of LS180 (in words) [2] | Solubility in organic solvents (Solubility; tetrahydrofuran) | growth inhibition of P388 tumor cells (in words) (P388 tumor cells) | other results
> 311 µM | 311 µM | > 311 µM | soluble | Sparingly soluble | COc1cc(C)cc2c(=O)oc3c4cccc(O)c4c(O)cc3c12 [BE-12406X2] | inhibit the growth |  |  |  |  |  |  |  |  |  |  |  | 
91.9 µM | 36.3 µM | 115 µM | soluble | Sparingly soluble | COc1cc(C)cc2c(=O)oc3c4cccc(OC5OC(C)C(O)C(O)C5O)c4c(O)cc3c12 (centres unmarked) [BE-12406X1] | inhibit the growth |  |  |  |  |  |  |  |  | markedly inhibited proliferation |  |  | 
> 220 µM | 88.1 µM | 161 µM |  | Sparingly soluble | Cc1cc(O)c2c(c1)c(=O)oc1c3cccc(O)c3c(OC3OC(C)C(O)C(O)C3O)cc12 (centres unmarked) [BE-12406B] | inhibit the growth | 7 µM | 7 µM | 11 µM | inhibited | inhibited growth | 20 µM | inhibited growth | 60 µM |  | readily soluble | markedly inhibit the growth | 

Structure (SMILES) | IC50 [1] | IC50 [2] | IC50 [3] | Solubility in organic solvents (Solubility; dimethylformamide) | Solubility in water (Solubility) | growth inhibition of human cancer cells (in words) (human cancer cells) | IC50 (P388/S tumor cells) | IC50 (P388/V cells) | IC50 (P388/A cells) | inhibition of P388/A cells (in words) (P388/A cells) | growth inhibition of HeLa cells (in words) (HeLa cells) | IC50 (HeLa cells) | growth inhibition of L1210 cells (in words) (L1210 cells) | IC50 (L1210 cells) | inhibition of proliferation of LS180 (in words) [2] | Solubility in organic solvents (Solubility; tetrahydrofuran) | growth inhibition of P388 tumor cells (in words) (P388 tumor cells) | other results
COc1cc(C)cc2c(=O)oc3c4cccc(O)c4c(OC4OC(C)C(O)C(O)C4O)cc3c12 (centres unmarked) [BE-12406A] | 18.4 µM | 12 µM | 20.7 µM |  | Sparingly soluble | inhibit the growth | 0.8 µM | 0.2 µM | 0.9 µM | inhibited | inhibited growth | 11 µM | inhibited growth | 9.6 µM | markedly inhibited proliferation | readily soluble | markedly inhibit the growth | MST (mean survival time) (S-180 ascites tumor; 2.5 mg/kg/injection): 12.0 days; MST (% T/C), (treated MST/control MST) × 100 (S-180 ascites tumor; 2.5 mg/kg/injection): 120 % T/C; MST (mean survival time) (S-180 ascites tumor; 5 mg/kg/injection): 13.0 days; MST (% T/C), (treated MST/control MST) × 100 (S-180 ascites tumor; 5 mg/kg/injection): 130 % T/C; MST (mean survival time) (S-180 ascites tumor; 10 mg/kg/injection): 15.0 days; MST (% T/C), (treated MST/control MST) × 100 (S-180 ascites tumor; 10 mg/kg/injection): 150 % T/C; MST (mean survival time) (S-180 ascites tumor; 20 mg/kg/injection): > 30.0 days; MST (% T/C), (treated MST/control MST) × 100 (S-180 ascites tumor; 20 mg/kg/injection): > 300 % T/C; MST (mean survival time) (S-180 ascites tumor; 40 mg/kg/injection): > 30.0 days; MST (% T/C), (treated MST/control MST) × 100 (S-180 ascites tumor; 40 mg/kg/injection): > 300 % T/C; antitumor effect on transplanted S-180 tumor cells (in words) (S-180 ascites tumor; mice): showed an antitumor effect; acute toxicity, death on day 5 [4]: no death was found
